{"source": "paper PMC8297771", "about": "(PLoS Pathogens, 2021)", "key": {"[1]": {"tested_on": "HIV-1NL4-3", "assay": "In vitro anti-viral assay in human PBMCs (RT activity readout)", "type": "cell-based", "protocol": "(§1) For the assay with human PBMCs, PHA stimulated cells from at least two pooled healthy were infected with HIV-1 strains in 96-well plates. Test drug dilutions, which were prepared at a 2X concentration in microtiter tubes and 100 μL of each concentration (nine total concentrations), were placed in appropriate wells using the standard format. 50 μL of a predetermined dilution of virus stock was placed in each test well (final MOI ≅ 0.1). The PBMC cultures were maintained for 7 days following infection at 37 °C, 5% CO2. After this period, cell-free supernatant samples were collected for analysis of reverse transcriptase (RT) activity. All assays were conducted in triplicates. For RT assay, a microtiter plate-based reverse transcriptase (RT) reaction was utilized (Buckheit et al., AIDS Research and Human Retroviruses 7:295–302, 1991). Tritiated thymidine triphosphate (^3H-TTP, 80 Ci/mmol, NEN) is received in 1:1 dH2O: Ethanol at 1 mCi/mL. Poly rA:oligo dT template:primer (GE Healthcare) was prepared as a stock solution by combining 150 μL poly rA (20 mg/mL) with 0.5 mL oligo dT (20 units/mL) and 5.35 mL sterile dH2O followed by aliquoting (1.0 mL) and storage at—20°C. The RT reaction buffer was prepared fresh on a daily basis and consisted of 125 μL 1.0 M EGTA, 125 μL dH2O, 125 μL 20% Triton X100, 50 μL 1.0 M Tris (pH 7.4), 50 μL 1.0 M DTT, and 40 μL 1.0 M MgCl2. The final reaction mixture was prepared by combining 1 part ^3H-TTP, 4 parts dH2O, 2.5 parts poly rA:oligo dT stock and 2.5 parts reaction buffer. Ten microliters of this reaction mixture were placed in a round bottom microtiter plate and 15 μL of virus containing supernatant is added and mixed. The plate was incubated at 37°C for 60 mins. Following incubation, the reaction volume was spotted onto DE81 filter-mats (Wallac), washed 5 times for 5 mins each in a 5% sodium phosphate buffer or 2X SSC (Life Technologies). Next they were washed 2 times for 1 min each in distilled water, 2 times for 1 min each in 70% ethanol, and then dried. Incorporated radioactivity (counts per min, CPM) was quantified using standard liquid scintillation techniques. These PBMC analysis was conducted by fee to service through Southern Research Institute (Frederick, MD, USA). The IC50 were analyzed using GraphPad Prism (Version 9) and presented as means ± S.D. of the triplicates."}, "[2]": {"tested_on": "Ral-resistant (1556_1) clinical isolate", "assay": "In vitro anti-viral assay in human PBMCs (RT activity readout)", "type": "cell-based, HIV-1", "protocol": "as §1"}, "[3]": {"tested_on": "Ral-resistant (4736_2) clinical isolate", "assay": "In vitro anti-viral assay in human PBMCs (RT activity readout)", "type": "cell-based, HIV-1", "conditions": "human PBMCs, Ral-resistant (4736_2)", "protocol": "as §1"}, "[4]": {"tested_on": "Ral-resistant (4736_4) clinical isolate", "assay": "In vitro anti-viral assay in human PBMCs (RT activity readout)", "type": "cell-based, HIV-1", "conditions": "human PBMCs, Ral-resistant (4736_4)", "protocol": "as §1"}, "[5]": {"tested_on": "Ral-resistant (8070_1) clinical isolate", "assay": "In vitro anti-viral assay in human PBMCs (RT activity readout)", "type": "cell-based, HIV-1", "protocol": "as §1"}, "[6]": {"tested_on": "HIV-1 NL4-3", "assay": "In vitro anti-viral assay in MT4 cells", "type": "cell-based"}, "[7]": {"tested_on": "MT4 cells", "assay": "Tissue culture cytotoxicity measurement in MT4 cells", "type": "cell-based", "from_the_text": "Fig 1 ALLINI structures and STP0404 activities. […] Pyridine-based KF116, D. Pyrrolopyridine-based STP0404. The conserved chemical moiety containing tert-butoxy and carboxylic acid groups are marked by “]”."}, "[8]": {"tested_on": "cytochrome P450 enzymes", "assay": "Cytochrome P450 inhibition assay in human liver microsomes", "type": "in vitro ADME", "conditions": "8 different cytochrome P450 enzymes", "protocol": "The final concentrations of test article in incubation system were 0, 0.15, 0.5, 1.5, 5, 15 and 50 μM. The inhibition of CYP1A2, 2B6, 2C8, 2C9, 2C19, 2D6, and 3A4 in human liver microsomes was measured as the percentage decrease in the activity of marker metabolite formation compared to non-inhibited controls (= 100% activity). The rate of formation of isoform-specific metabolites derived from marker substrates were measured by UPLC-MS/MS. The IC50 values were calculated with the metabolites decrease percentages of test samples to vehicle samples. All incubations were performed in triplicate (Pharmaron, China)."}, "[9]": {"tested_on": "CYP3A and PXR", "assay": "PXR induction in DPX2 cells", "type": "in vitro ADME", "protocol": "STP0404 to activate PXR, and thereby to induce CYP3A4 expression in DPX2 cell lines following in vitro administration. […] After 48 hrs incubation, the cell viability was assessed fluorimetrically via CellTiter-FluorTM. CYP3A-mediated metabolism and PXR activation are measured using luminescence with Luciferin-IPA and ONE-GloTM, respectively. The light intensity is directly proportional to the extent of PXR activation and accompanying gene transcription in the DPX2 cells (Wuxi AppTec, China)."}, "[10]": {"assay": "Safety pharmacology: effects on the cardiovascular system in dogs", "type": "in vivo", "conditions": "oral 30, 60 and 90 mg/kg", "protocol": "Effects on the Respiratory System in Rats (Study no. YL18404). Four groups of eight male rats were given a single oral administration of STP0404 at doses of 100, 300 and 600 mg/kg. STP0404 was administered as a suspension in 0.5% MC in a volume of 10 mL/kg. […] Measurements were conducted at pre-dosing and 0.5, 1, 3, 6 12 and 24 hrs post-dosing, and respiratory rate, tidal volume and minute volume were investigated (INA Research, Japan). Effects on the Central Nervous System in Rats (Study no. YL18405). Four groups of six male rats were given a single oral administration of STP0404 at doses of 0 (vehicle), 100, 300 and 600 mg/kg. The test article was administered as a suspension in 0.5% MC in a volume of 10 mL/kg. […] Blinded observations were conducted pre-dosing and 0.5, 1, 3, 6, 12 and 24 hrs post-dosing on rats body temperature, pupil size, landing foot-splay and grip strength in functional observational battery. Effects on the Cardiovascular System in Dogs (Study no. YL18406). STP0404 at dose levels of 30, 60 and 90 mg/kg were administered orally (by capsules) to four male Beagle dogs in a design with 7-day intervals between doses. Heart rate, blood pressure (systolic, diastolic and mean) and electrocardiographic (ECG) parameters (PR, QT and QTc intervals and QRS duration) were evaluated at pre-dosing and 0.5, 1, 2, 4, 8 and 24 hrs post-dosing. […]"}, "[11]": {"conditions": "Human immunodeficiency virus 1, PBMC"}, "[12]": {"conditions": "Human immunodeficiency virus 1, PBMC, read-out: IC50"}}, "data": [{"compound": "Cc1nc2c(c(C)c(C)n2Cc2cnn(C)c2)c(-c2ccc(Cl)cc2)c1[C@H](OC(C)(C)C)C(=O)O", "note": "[STP0404]", "values": [{"measurement": "IC50", "setting": "[1]; Human immunodeficiency virus 1, NL43, PBMC", "value": "0.41 ± 0.43", "unit": "nM"}, {"measurement": "TI (TC50 / IC50)", "setting": "[1]; human PBMCs, NL4-3, minimal TI from IC50 and 10 μM", "value": ">24,000"}, {"measurement": "TI (TC50 / IC50)", "setting": "[2]", "value": ">125,000"}, {"measurement": "IC50", "setting": "[2]; [11]", "value": "0.08 ± 0.04", "unit": "nM"}, {"measurement": "IC50", "setting": "[3]; [12]", "value": "0.03 ± 0.04", "unit": "nM"}, {"measurement": "TI (TC50 / IC50)", "setting": "[3]", "value": ">330,000"}, {"measurement": "IC50", "setting": "[4]; [12]", "value": "0.04 ± 0.06", "unit": "nM"}, {"measurement": "TI (TC50 / IC50)", "setting": "[4]", "value": ">250,000"}, {"measurement": "IC50", "setting": "[5]; [11]", "value": "0.06 ± 0.07", "unit": "nM"}, {"measurement": "TI (TC50 / IC50)", "setting": "[5]; human PBMCs, Ral-resistant (8070_1)", "value": ">166,000"}, {"measurement": "TI (TC50 / IC50)", "setting": "[6]; HIV-1 NL4-3 / MT4 cells", "value": "> 6,020"}, {"measurement": "IC50", "setting": "[6]; Human immunodeficiency virus 1, NL43, MT4", "value": "1.66 ± 0.32", "unit": "nM"}, {"measurement": "TC50", "setting": "[7]", "value": "> 10,000 nM"}, {"measurement": "inhibition of cytochrome P450 enzymes (in words)", "setting": "[8]", "value": "low (high μM) or no inhibition (NI)"}, {"measurement": "EC50 to activate drug metabolizing factors (in words)", "setting": "[9]", "value": "comparatively high concentrations"}, {"measurement": "safety pharmacology concerns, cardiovascular system", "setting": "[10]", "value": "did not induce any safety pharmacology concerns"}]}]}
